From patent US5834461A, “Tricyclic benzazepine vasopressin antagonists” (American Cyanamid Company, priority 1997, dated 1998)

What was measured:
[1] = biological target: vasopressin V1 receptor (rat liver plasma membranes) (Rattus norvegicus, UniProt P30560); assay: Binding Assay to Rat Hepatic V1 Receptors; settings: rat hepatic V1
[2] = biological target: T1, rat kidney medullary V2 receptors (Rattus norvegicus, UniProt Q00788); assay: Binding Assay to Rat Kidney Medullary V2 Receptors; settings: rat kidney medullary V2
T1 construct: Medullary tissues from rat kidneys are dissected out; from tissue; host or cells: rat kidney medulla membranes
T1 sequence (Q00788 whole entry): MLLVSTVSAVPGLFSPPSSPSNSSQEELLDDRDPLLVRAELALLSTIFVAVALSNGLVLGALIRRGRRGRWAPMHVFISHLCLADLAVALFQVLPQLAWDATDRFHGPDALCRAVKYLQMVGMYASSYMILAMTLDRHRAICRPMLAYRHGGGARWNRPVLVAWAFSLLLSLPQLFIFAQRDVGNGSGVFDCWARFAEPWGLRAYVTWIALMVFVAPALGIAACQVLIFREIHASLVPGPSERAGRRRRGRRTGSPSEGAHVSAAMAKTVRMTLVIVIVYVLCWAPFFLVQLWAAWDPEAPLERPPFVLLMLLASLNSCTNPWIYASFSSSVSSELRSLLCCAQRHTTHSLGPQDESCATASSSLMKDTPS
Method in brief: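 Competition binding: [3H]AVP at 0.8 nM, test compounds from 50% DMSO, and membranes from rat kidney medulla, left 120 min on the bench. Filtration then liquid scintillation counting measured bound ligand; 1.0 μM unlabeled ligand set non-specific binding.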

[3] = test system: vasopressin V2; assay: Vasopressin V2 Antagonist Activity in Conscious Hydrated Rats (diuretic effect); format: in vivo, normal Sprague-Dawley rats; settings: AVP 0.4 μg/kg i.p.
Method: Conscious hydrated rats are treated with compounds under study from 0.1 to 100 mg/kg orally or vehicle. Two to four rats are used for each compound. One hour later, arginine vasopressin (AVP, antidiuretic hormore, ADH) dissolved in peanut oil is administered at 0.4 μg/kg intraperitoneally. Two rats in each test would not receive arginine vasopressin but only the vehicle (peanut oil) to serve as water-loading control. Twenty minutes later each rat is given 30 mL/kg of deionized water orally by gavage and is placed individually in a metabolic cage equipped with a funnel and a graduated glass cylinder to collect urine for four hours. Urine volume is measured and osmolality analyzed by use of a Fiske One-Ten osmometer (Fiske Assoc., Norwood, Mass., USA). Urinary sodium, potassium, and chloride are analyzed by use of ion-specific electrodes in a Beckman E3 (Electrolyte 3) Analyzer. In the following results, […] and decreased osmolality relative to AVP-control indicates activity.

[4] = test system: vasopressin V1; assay: Vasopressin V1 Antagonist Activity in Conscious Rats (vasopressin vasopressor response); format: in vivo, rat (spontaneously hypertensive rats); set-up: Average Change: unit not given here
Method in brief: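 Conscious rats had the ventral caudal tail artery cannulated into the lower abdominal aorta under local procaine anesthesia, plus a caudal vein cannula for intravenous dosing. Pulsatile blood pressure was recorded via a Statham P23Db transducer. Vasopressor responses to vasopressin injections were measured before and after compound dosing, with percent antagonism calculated relative to the pre-drug response taken as 100%.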

[5] = 10 mg/kg i.v., VAS 0.01 i.u./kg, 30 min
[6] = 10 mg/kg i.v., VAS 0.01 i.u./kg, 60 min
[7] = 10 mg/kg i.v., VAS 0.01 i.u./kg, 90 min
[8] = 10 mg/kg i.v., VAS 0.01 i.u./kg, 120 min
[9] = 10 mg/kg i.v., VAS 0.01 i.u./kg, 180 min
[10] = 10 mg/kg i.v., VAS 0.01 i.u./kg, 240 min
[11] = 10 mg/kg i.v., VAS 0.01 i.u./kg, 300 min
[12] = 10 mg/kg i.v., VAS 0.02 i.u./kg, 30 min
[13] = 10 mg/kg i.v., VAS 0.02 i.u./kg, 60 min
[14] = 10 mg/kg i.v., VAS 0.02 i.u./kg, 90 min
[15] = 10 mg/kg i.v., VAS 0.02 i.u./kg, 120 min
[16] = 10 mg/kg i.v., VAS 0.02 i.u./kg, 180 min
[17] = 10 mg/kg i.v., VAS 0.02 i.u./kg, 240 min
[18] = 10 mg/kg i.v., VAS 0.02 i.u./kg, 300 min
[19] = 20 mg/kg i.v., VAS 0.01 i.u./kg, 60 min
[20] = 20 mg/kg i.v., VAS 0.01 i.u./kg, 90 min
[21] = 20 mg/kg i.v., VAS 0.01 i.u./kg, 120 min
[22] = 20 mg/kg i.v., VAS 0.01 i.u./kg, 180 min
[23] = 20 mg/kg i.v., VAS 0.01 i.u./kg, 240 min
[24] = 20 mg/kg i.v., VAS 0.01 i.u./kg, 300 min
[25] = 20 mg/kg i.v., VAS 0.02 i.u./kg, 60 min
[26] = 20 mg/kg i.v., VAS 0.02 i.u./kg, 90 min
[27] = 20 mg/kg i.v., VAS 0.02 i.u./kg, 120 min
[28] = 20 mg/kg i.v., VAS 0.02 i.u./kg, 180 min
[29] = 20 mg/kg i.v., VAS 0.02 i.u./kg, 240 min
[30] = 20 mg/kg i.v., VAS 0.02 i.u./kg, 300 min

Sequence of vasopressin V1 receptor (rat liver plasma membranes) (P30560 whole entry): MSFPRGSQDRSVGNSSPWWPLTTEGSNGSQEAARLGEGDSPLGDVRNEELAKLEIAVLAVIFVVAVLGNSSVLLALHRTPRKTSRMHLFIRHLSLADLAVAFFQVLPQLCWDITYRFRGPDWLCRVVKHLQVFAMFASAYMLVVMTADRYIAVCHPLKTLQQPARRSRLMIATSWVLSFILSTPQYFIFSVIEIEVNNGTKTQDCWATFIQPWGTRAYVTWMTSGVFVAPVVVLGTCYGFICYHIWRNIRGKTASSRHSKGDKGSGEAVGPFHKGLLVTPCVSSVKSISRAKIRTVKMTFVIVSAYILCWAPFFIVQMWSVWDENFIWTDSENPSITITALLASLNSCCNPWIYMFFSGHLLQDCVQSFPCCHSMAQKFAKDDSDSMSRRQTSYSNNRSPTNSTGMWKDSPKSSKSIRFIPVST

Work on `Cc1ccccc1C(=O)Nc1ccc(C(=O)N2CCc3ccccc3-c3ccccc32)cc1` [Example 92, N-[4-[(6,7-Dihydro-5H-dibenz[b,d]azepin-5-yl)-carbonyl]phenyl]-2-methylbenzamide] yielded an IC50 [1] of 98 nM, an IC50 [2] of 25 nM and an Osmolality ([3]; 10 mg/kg orally) of 679 mOsm/kg. For the same compound, the “Urine Volume” value ([3]; 10 mg/kg orally) was 13.5 ml/4 hrs, the “Average Change” value [4, 5] was 10.5 and the Inhibition [4, 5] was 65%. The “Average Change” value [4, 6] was 18, the Inhibition [4, 6] was 40% and the “Average Change” value [4, 7] was 17.5. For the same compound, the Inhibition [4, 7] was 42%, the “Average Change” value [4, 8] was 19 and the Inhibition [4, 8] was 37%. The “Average Change” value [4, 9] was 18, the Inhibition [4, 9] was 40% and the “Average Change” value [4, 10] was 19. For the same compound, the Inhibition [4, 10] was 37%, the “Average Change” value [4, 11] was 17.5 and the Inhibition [4, 11] was 42%. For the same compound, the “Average Change” value [4, 12] was 18.5, the Inhibition [4, 12] was 60% and the “Average Change” value [4, 13] was 22. The Inhibition [4, 13] was 53%, the “Average Change” value [4, 14] was 27 and the Inhibition [4, 14] was 42%. The “Average Change” value [4, 15] was 20.5, the Inhibition [4, 15] was 56% and the “Average Change” value [4, 16] was 29.5. For the same compound, the Inhibition [4, 16] was 37%, the “Average Change” value [4, 17] was 18 and the Inhibition [4, 17] was 61%. The “Average Change” value [4, 18] was 24 and the Inhibition [4, 18] was 48%.

`Cc1ccccc1NC(=O)c1ccc(C(=O)N2Cc3ccccc3Cc3ccccc32)cc1` [Example 123, 4-[(6,11-Dihydro-5H-dibenz[b,e]azepin-5-yl)-carbonyl]-N-(2-methylphenyl)benzamide] gave an IC50 [1] of 43 nM, an IC50 [2] of 190 nM and an Osmolality ([3]; 10 mg/kg orally) of 1125 mOsm/kg. For the same compound, the “Urine Volume” value ([3]; 10 mg/kg orally) was 5.8 ml/4 hrs, the “Average Change” value [4, 5] was 17.5 and the Inhibition [4, 5] was 0%. The “Average Change” value [4, 12] was 20, the Inhibition [4, 12] was 39% and the “Average Change” value [4, 19] was 6. For the same compound, the Inhibition [4, 19] was 66%, the “Average Change” value [4, 20] was 6 and the Inhibition [4, 20] was 66%. For the same compound, the “Average Change” value [4, 21] was 5, the Inhibition [4, 21] was 71% and the “Average Change” value [4, 22] was 4. The Inhibition [4, 22] was 77%, the “Average Change” value [4, 23] was 8 and the Inhibition [4, 23] was 54%. For the same compound, the “Average Change” value [4, 24] was 8, the Inhibition [4, 24] was 54% and the “Average Change” value [4, 25] was 6. The Inhibition [4, 25] was 82%, the “Average Change” value [4, 26] was 7 and the Inhibition [4, 26] was 79%. For the same compound, the “Average Change” value [4, 27] was 4.5, the Inhibition [4, 27] was 86% and the “Average Change” value [4, 28] was 6.5. For the same compound, the Inhibition [4, 28] was 80%, the “Average Change” value [4, 29] was 6.5 and the Inhibition [4, 29] was 80%. The “Average Change” value [4, 30] was 8 and the Inhibition [4, 30] was 76%.

Work on `Cc1cccc(NC(=O)c2ccc(C(=O)N3Cc4ccccc4Cc4ccccc43)cc2)c1C` [Example 124, 4-[(6.11-Dihydro-5H-dibenz[b,e]azepin-5-yl)-carbonyl]-N-(2,3-dimethylphenyl)benzamide] yielded an IC50 [1] of 1200 nM, an IC50 [2] of 210 nM and an Osmolality ([3]; 10 mg/kg orally) of 1172 mOsm/kg. For the same compound, the “Urine Volume” value ([3]; 10 mg/kg orally) was 5.5 ml/4 hrs, the “Average Change” value [4, 5] was 38.5 and the “Average Change” value [4, 12] was 43.5. For the same compound, the Inhibition [4, 12] was -23%, the “Average Change” value [4, 19] was 4 and the Inhibition [4, 19] was 88%. The “Average Change” value [4, 20] was 12.5, the Inhibition [4, 20] was 62% and the “Average Change” value [4, 21] was 12.5. For the same compound, the Inhibition [4, 21] was 62%, the “Average Change” value [4, 22] was 21 and the Inhibition [4, 22] was 35%. The “Average Change” value [4, 23] was 18, the Inhibition [4, 23] was 45% and the “Average Change” value [4, 24] was 20. For the same compound, the Inhibition [4, 24] was 38%, the “Average Change” value [4, 25] was 17.5 and the Inhibition [4, 25] was 51%. The “Average Change” value [4, 26] was 18, the Inhibition [4, 26] was 49% and the “Average Change” value [4, 27] was 9.5. The Inhibition [4, 27] was 45%, the “Average Change” value [4, 28] was 21.5 and the Inhibition [4, 28] was 39%. For the same compound, the “Average Change” value [4, 29] was 24.5, the Inhibition [4, 29] was 31% and the “Average Change” value [4, 30] was 33.5. It also gave an Inhibition [4, 30] of 6%.

In the case of `Cc1ccccc1C(=O)Nc1ccc(C(=O)N2Cc3ccccc3Cc3cc(Cl)ccc32)cc1` [Example 136], the IC50 [1] is reported as 16 nM, the IC50 [2] is reported as 27 nM and the Osmolality ([3]; 30 mg/kg orally) is reported as 306 mOsm/kg. For the same compound, the “Urine Volume” value ([3]; 30 mg/kg orally) was 19 ml/4 hrs, the “MAX % Inhibition” value ([4]; 10 mg/kg i.v.) was 81% and the “Time of max % inhibition” value ([4]; 10 mg/kg i.v.) was 30 min.

Compound `O=C(Nc1ccc(C(=O)N2Cc3ccccc3Cc3cc(Cl)ccc32)cc1)c1ccc(Cl)cc1Cl` [Example 137, N-[4-[(2-Chloro-6,11-dihydro-5H-dibenz[b,e]azepin-5-yl)carbonyl]phenyl]2,4-dichlorobenzamide] has an IC50 [1] of 76 nM, an IC50 [2] of 64 nM and an Osmolality ([3]; 30 mg/kg orally) of 358 mOsm/kg. The “Urine Volume” value ([3]; 30 mg/kg orally) was 15.8 ml/4 hrs, the “MAX % Inhibition” value ([4]; 10 mg/kg i.v.) was 52% and the “Time of max % inhibition” value ([4]; 10 mg/kg i.v.) was 30 min.

For `Cc1cccc(C(=O)Nc2ccc(C(=O)N3Cc4ccccc4Cc4cc(Cl)ccc43)cc2)c1C` [Example 138, N-[4-[(2-Chloro-6,11-dihydro-5H-dibenz[b,e]azepin-5-yl)carbonyl]phenyl]2,3-dimethylbenzamide], the IC50 [1] was 46 nM, the IC50 [2] was 51 nM and the Osmolality ([3]; 30 mg/kg orally) was 380 mOsm/kg. For the same compound, the “Urine Volume” value ([3]; 30 mg/kg orally) was 13.8 ml/4 hrs, the “MAX % Inhibition” value ([4]; 10 mg/kg i.v.) was 88% and the “Time of max % inhibition” value ([4]; 10 mg/kg i.v.) was 60 min.

Compound `Cc1ccccc1C(=O)N(C)c1ccc(C(=O)N2Cc3ccccc3Cc3ccccc32)cc1` [Example 167, N-[4-[ (6,11-Dihydro-5H-dibenz[b,e]azepin-5-yl)carbonyl]phenyl]-N-methyl-2-methylbenzamide] has an IC50 [1] of 510 nM, an IC50 [2] of 430 nM and an Osmolality ([3]; 30 mg/kg orally) of 1544 mOsm/kg. The “Urine Volume” value ([3]; 30 mg/kg orally) was 2 ml/4 hrs, the “MAX % Inhibition” value ([4]; 10 mg/kg i.v.) was 70% and the “Time of max % inhibition” value ([4]; 10 mg/kg i.v.) was 180 min.

`O=C(Nc1ccc(C(=O)N2Cc3ccccc3Cc3ccccc32)cc1)c1c(Cl)cccc1Cl` [Example 252, N-[4-[(6,11-Dihydro-5H-dibenz[b,e]azepin-5-yl)-carbonyl]phenyl]-2,6-dichlorobenzamide] was tested, and the IC50 [1] was 260 nM, the IC50 [2] was 260 nM and the Osmolality ([3]; 10 mg/kg orally) was 790 mOsm/kg. The “Urine Volume” value ([3]; 10 mg/kg orally) was 7.5 ml/4 hrs, the “MAX % Inhibition” value ([4]; 30 mg/kg i.v.) was 75% and the “Time of max % inhibition” value ([4]; 30 mg/kg i.v.) was 120 min.
